Experimental data reported in patent US20240209028A1, “CNP COMPOUNDS” (priority 2022, published 2024).
Where “and” joins values, the source holds several entries; their conditions need not be identical. Equal values may be shown once. Starred links: 1 amine or outer side, 2 acyl side, 3 side chain; linkers in the order of their positions; H or OH if unused. Positions of bridges follow the written chain, without caps; N, C: chain ends. Residues, ends and D or L forms follow the SMILES beside them. *: point of attachment. C18 diacid = O=C(O)CCCCCCCCCCCCCCCCC(=O)*; γGlu = O=C(O)[C@H](CCC(=O)[*:2])N[*:1]; AEEA = NCCOCCOCC(=O)O

How the values were obtained:
[1] = Thioflavin T (ThT) assay: lagtime and peptide recovery; type: physicochemical; settings: assay terminated after 45 hours; for LagTime (h) at pH 4.0: ThT, 37° C., shaking; for LagTime (h) at pH 6.5: ThT assay, pH 6.5, 37° C.
How it was run: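 ThT (final about 1 μM) was added to peptide supernatants at pH 4.0 and 6.5 and incubated at 37 °C with orbital shaking for 45 h. Fluorescence (ex 444/em 485 nm) was read every 20 min, and lag-time was taken as the time to onset of signal rise. Recovery is the RP-UPLC (215 nm) total peak area after vs. before incubation.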

[2] = High-Molecular-Weight-Protein (HMWP) formation by SEC-UPLC; type: physicochemical; settings: increase over two weeks at 37° C.
How it was run: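 Formulations at pH 4.0 or 6.5 incubated quiescently for two weeks at 37 °C; HMWP (peaks eluting before monomer, % of total peptide area) measured by SEC-UPLC, pH 2.4 mobile phase with 50% isopropanol, 50 °C, UV 215 nm. Value is HMWP increase, normalized to two weeks if needed.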

CC[C@H](C)[C@@H]1NC(=O)[C@H](CCCNC(=N)N)NC(=O)[C@H](CC(=O)O)NC(=O)[C@H](CC(C)C)NC(=O)[C@@H]2CCCN2C(=O)[C@H](CC(C)C)NC(=O)CNC(=O)[C@H](Cc2ccccc2)NC(=O)[C@@H](NC(=O)CNC(=O)[C@H](CO)NC(=O)[C@H](CO)NC(=O)[C@@H](NC(=O)CNC(=O)[C@H](CCCCN)NC(=O)[C@H](CCCCN)NC(=O)[C@H](CCC(N)=O)NC(=O)[C@H](C)NC(=O)CNC(=O)[C@H](Cc2c[nH]cn2)NC(=O)[C@H](Cc2ccc(O)cc2)NC(=O)[C@H](CCCCN)NC(=O)[C@H](CCCNC(=N)N)NC(=O)[C@H](C)NC(=O)COCCOCCNC(=O)COCCOCCNC(=O)CC[C@H](NC(=O)CC[C@H](NC(=O)CC[C@H](NC(=O)CCCCCCCCCCCCCCCCC(=O)O)C(=O)O)C(=O)O)C(=O)O)C(C)C)CSSC[C@@H](C(=O)O)NC(=O)CNC(=O)[C@H](CC(C)C)NC(=O)CNC(=O)[C@H](CO)NC(=O)[C@H](CC(C)C)NC(=O)[C@H](CO)NC(=O)CNC1=O [compound 1422] ({C18 diacid-γGlu-γGlu-γGlu-AEEA-AEEA}-ARKYHGAQKKGVSSGCFGLPLDRIGSLSGLGC-OH; disulfide 16-32)
LagTime (h) at pH 4.0 [1]: 45 h | 2-Week HMWP formation at pH 4.0 (%), % relative to total peak area [2]: 36%

CC[C@H](C)[C@@H]1NC(=O)[C@H](CCCNC(=N)N)NC(=O)[C@H](CC(=O)O)NC(=O)[C@H](CC(C)C)NC(=O)[C@@H]2CCCN2C(=O)[C@H](CC(C)C)NC(=O)CNC(=O)[C@H](Cc2ccccc2)NC(=O)[C@@H](NC(=O)CNC(=O)[C@H](CCC(N)=O)NC(=O)[C@H](CO)NC(=O)CNC(=O)CNC(=O)[C@H](CCCCN)NC(=O)[C@H](Cc2c[nH]cn2)NC(=O)[C@H](CCC(N)=O)NC(=O)[C@H](C)NC(=O)CNC(=O)[C@H](CCC(=O)O)NC(=O)[C@H](Cc2ccc(O)cc2)NC(=O)[C@H](CCCCN)NC(=O)[C@H](CCCNC(=N)N)NC(=O)[C@H](C)NC(=O)COCCOCCNC(=O)COCCOCCNC(=O)COCCOCCNC(=O)COCCOCCNC(=O)CC[C@H](NC(=O)CC[C@H](NC(=O)CCCCCCCCCCCCCCCCC(=O)O)C(=O)O)C(=O)O)CSSC[C@@H](C(=O)O)NC(=O)CNC(=O)[C@H](CC(C)C)NC(=O)CNC(=O)[C@H](CO)NC(=O)[C@H](CC(C)C)NC(=O)[C@H](CO)NC(=O)CNC1=O [compound 1432] ({C18 diacid-γGlu-γGlu-AEEA-AEEA-AEEA-AEEA}-ARKYEGAQHKGGSQGCFGLPLDRIGSLSGLGC-OH; disulfide 16-32)
LagTime (h) at pH 6.5 [1]: 45 h | 2-Week HMWP formation at pH 6.5 (%), % relative to total peak area [2]: 2.89%

CC[C@H](C)[C@@H]1NC(=O)[C@H](CCCNC(=N)N)NC(=O)[C@H](CC(=O)O)NC(=O)[C@H](CC(C)C)NC(=O)[C@@H]2CCCN2C(=O)[C@H](CC(C)C)NC(=O)CNC(=O)[C@H](Cc2ccccc2)NC(=O)[C@@H](NC(=O)CNC(=O)[C@H](CCC(N)=O)NC(=O)[C@H](CO)NC(=O)CNC(=O)CNC(=O)[C@H](CCCCN)NC(=O)[C@H](CCCCN)NC(=O)[C@H](CCC(N)=O)NC(=O)[C@H](C)NC(=O)CNC(=O)[C@H](Cc2c[nH]cn2)NC(=O)[C@H](Cc2ccc(O)cc2)NC(=O)COCCOCCNC(=O)COCCOCCNC(=O)COCCOCCNC(=O)COCCOCCNC(=O)CC[C@H](NC(=O)CC[C@H](NC(=O)CCCCCCCCCCCCCCCCC(=O)O)C(=O)O)C(=O)O)CSSC[C@@H](C(=O)O)NC(=O)CNC(=O)[C@H](CC(C)C)NC(=O)CNC(=O)[C@H](CO)NC(=O)[C@H](CC(C)C)NC(=O)[C@H](CO)NC(=O)CNC1=O [compound 1434] ({C18 diacid-γGlu-γGlu-AEEA-AEEA-AEEA-AEEA}-YHGAQKKGGSQGCFGLPLDRIGSLSGLGC-OH; disulfide 13-29)
LagTime (h) at pH 6.5 [1]: 45 h | 2-Week HMWP formation at pH 6.5 (%), % relative to total peak area [2]: 3.2%

CC[C@H](C)[C@@H]1NC(=O)[C@H](CCCNC(=N)N)NC(=O)[C@H](CC(=O)O)NC(=O)[C@H](CC(C)C)NC(=O)[C@@H]2CCCN2C(=O)[C@H](CC(C)C)NC(=O)CNC(=O)[C@H](Cc2ccccc2)NC(=O)[C@@H](NC(=O)CNC(=O)[C@H](CCC(N)=O)NC(=O)[C@H](CO)NC(=O)[C@H](CC(C)C)NC(=O)CNC(=O)[C@H](CCCCN)NC(=O)[C@H](CCCCN)NC(=O)[C@H](CCC(N)=O)NC(=O)[C@H](C)NC(=O)CNC(=O)[C@H](CCCCN)NC(=O)[C@H](Cc2ccc(O)cc2)NC(=O)[C@H](CCCCN)NC(=O)[C@H](CCCNC(=N)N)NC(=O)[C@H](C)NC(=O)COCCOCCNC(=O)COCCOCCNC(=O)CC[C@H](NC(=O)CC[C@H](NC(=O)CC[C@H](NC(=O)CC[C@H](NC(=O)CC[C@H](NC(=O)CCCCCCCCCCCCCCCCC(=O)O)C(=O)O)C(=O)O)C(=O)O)C(=O)O)C(=O)O)CSSC[C@@H](C(=O)O)NC(=O)CNC(=O)[C@H](CC(C)C)NC(=O)CNC(=O)[C@H](CO)NC(=O)[C@H](CC(C)C)NC(=O)[C@H](CO)NC(=O)CNC1=O [compound 1453] ({C18 diacid-γGlu-γGlu-γGlu-γGlu-γGlu-AEEA-AEEA}-ARKYKGAQKKGLSQGCFGLPLDRIGSLSGLGC-OH; disulfide 16-32)
LagTime (h) at pH 6.5 [1]: 45 h | 2-Week HMWP formation at pH 6.5 (%), % relative to total peak area [2]: 3.94%

CC[C@H](C)[C@@H]1NC(=O)[C@H](CCCNC(=N)N)NC(=O)[C@H](CC(=O)O)NC(=O)[C@H](CC(C)C)NC(=O)[C@@H]2CCCN2C(=O)[C@H](CC(C)C)NC(=O)CNC(=O)[C@H](Cc2ccccc2)NC(=O)[C@@H](NC(=O)CNC(=O)[C@H](CCC(N)=O)NC(=O)[C@H](CO)NC(=O)[C@H](CO)NC(=O)CNC(=O)[C@H](CCCCN)NC(=O)[C@H](CCCCN)NC(=O)[C@H](CCC(N)=O)NC(=O)[C@H](C)NC(=O)CNC(=O)[C@@H]2CCCN2C(=O)[C@H](C)NC(=O)[C@H](CCC(N)=O)NC(=O)CNC(=O)[C@@H]2CCCN2C(=O)[C@H](C)NC(=O)[C@H](CCC(N)=O)NC(=O)CNC(=O)[C@@H]2CCCN2C(=O)[C@H](C)NC(=O)[C@H](CCC(N)=O)NC(=O)CNC(=O)COCCOCCNC(=O)COCCOCCNC(=O)CC[C@H](NC(=O)CCCCCCCCCCCCCCCCC(=O)O)C(=O)O)CSSC[C@@H](C(=O)O)NC(=O)CNC(=O)[C@H](CC(C)C)NC(=O)CNC(=O)[C@H](CO)NC(=O)[C@H](CC(C)C)NC(=O)[C@H](CO)NC(=O)CNC1=O [compound 1457] ({C18 diacid-γGlu-AEEA-AEEA}-GQAPGQAPGQAPGAQKKGSSQGCFGLPLDRIGSLSGLGC-OH; disulfide 23-39)
LagTime (h) at pH 6.5 [1]: 45 h | 2-Week HMWP formation at pH 6.5 (%), % relative to total peak area [2]: 3.24%

CC[C@H](C)[C@@H]1NC(=O)[C@H](CCCNC(=N)N)NC(=O)[C@H](CC(=O)O)NC(=O)[C@H](CC(C)C)NC(=O)[C@@H]2CCCN2C(=O)[C@H](CC(C)C)NC(=O)CNC(=O)[C@H](Cc2ccccc2)NC(=O)[C@@H](NC(=O)CNC(=O)[C@H](CCCCN)NC(=O)[C@H](CO)NC(=O)[C@H](CC(C)C)NC(=O)CNC(=O)[C@H](CCCCN)NC(=O)[C@H](CCCCN)NC(=O)[C@H](CCC(N)=O)NC(=O)[C@H](C)NC(=O)CNC(=O)[C@H](CCCCN)NC(=O)[C@H](Cc2ccc(O)cc2)NC(=O)[C@H](CCCCN)NC(=O)[C@H](CCCNC(=N)N)NC(=O)[C@H](C)NC(=O)COCCOCCNC(=O)COCCOCCNC(=O)CC[C@H](NC(=O)CC[C@H](NC(=O)CC[C@H](NC(=O)CC[C@H](NC(=O)CC[C@H](NC(=O)CCCCCCCCCCCCCCCCC(=O)O)C(=O)O)C(=O)O)C(=O)O)C(=O)O)C(=O)O)CSSC[C@@H](C(=O)O)NC(=O)CNC(=O)[C@H](CC(C)C)NC(=O)CNC(=O)[C@H](CO)NC(=O)[C@H](CC(C)C)NC(=O)[C@H](CO)NC(=O)CNC1=O [compound 1470] ({C18 diacid-γGlu-γGlu-γGlu-γGlu-γGlu-AEEA-AEEA}-ARKYKGAQKKGLSKGCFGLPLDRIGSLSGLGC-OH; disulfide 16-32)
LagTime (h) at pH 4.0 [1]: 45 h | 2-Week HMWP formation at pH 4.0 (%), % relative to total peak area [2]: 1.75%

CC[C@H](C)[C@@H]1NC(=O)[C@H](CCCNC(=N)N)NC(=O)[C@H](CC(=O)O)NC(=O)[C@H](CC(C)C)NC(=O)[C@@H]2CCCN2C(=O)[C@H](CC(C)C)NC(=O)CNC(=O)[C@H](Cc2ccccc2)NC(=O)[C@@H](NC(=O)CNC(=O)[C@H](CO)NC(=O)[C@H](CO)NC(=O)[C@H](CC(C)C)NC(=O)CNC(=O)[C@H](CCCCN)NC(=O)[C@H](CCCCN)NC(=O)[C@H](CCC(N)=O)NC(=O)[C@H](C)NC(=O)CNC(=O)[C@H](CCCCN)NC(=O)[C@H](Cc2ccc(O)cc2)NC(=O)[C@H](CCCCN)NC(=O)[C@H](CCCNC(=N)N)NC(=O)[C@H](C)NC(=O)[C@H](CCC(N)=O)NC(=O)[C@@H]2CCCN2C(=O)[C@H](Cc2c[nH]cn2)NC(=O)[C@H](CCC(=O)O)NC(=O)[C@H](CCC(N)=O)NC(=O)COCCOCCNC(=O)COCCOCCNC(=O)CC[C@H](NC(=O)CC[C@H](NC(=O)CC[C@H](NC(=O)CC[C@H](NC(=O)CCCCCCCCCCCCCCCCC(=O)O)C(=O)O)C(=O)O)C(=O)O)C(=O)O)CSSC[C@@H](C(=O)O)NC(=O)CNC(=O)[C@H](CC(C)C)NC(=O)CNC(=O)[C@H](CO)NC(=O)[C@H](CC(C)C)NC(=O)[C@H](CO)NC(=O)CNC1=O [compound 1473] ({C18 diacid-γGlu-γGlu-γGlu-γGlu-AEEA-AEEA}-QEHPQARKYKGAQKKGLSSGCFGLPLDRIGSLSGLGC-OH; disulfide 21-37; C-terminus assumed)
LagTime (h) at pH 4.0 [1]: 45 h | 2-Week HMWP formation at pH 4.0 (%), % relative to total peak area [2]: 0.9% and 1.26%
